Experimental data from PMC4475657 (Iranian Journal of Basic Medical Sciences, 2015).

Target: human tau protein 1N/4R isoform (htau34) (Homo sapiens, UniProt P10636)
Test: ThT fluorescence aggregation assay of purified tau
Format: biochemical

Sequence of human tau protein 1N/4R isoform (htau34) (P10636 1-412 isoform P10636-7): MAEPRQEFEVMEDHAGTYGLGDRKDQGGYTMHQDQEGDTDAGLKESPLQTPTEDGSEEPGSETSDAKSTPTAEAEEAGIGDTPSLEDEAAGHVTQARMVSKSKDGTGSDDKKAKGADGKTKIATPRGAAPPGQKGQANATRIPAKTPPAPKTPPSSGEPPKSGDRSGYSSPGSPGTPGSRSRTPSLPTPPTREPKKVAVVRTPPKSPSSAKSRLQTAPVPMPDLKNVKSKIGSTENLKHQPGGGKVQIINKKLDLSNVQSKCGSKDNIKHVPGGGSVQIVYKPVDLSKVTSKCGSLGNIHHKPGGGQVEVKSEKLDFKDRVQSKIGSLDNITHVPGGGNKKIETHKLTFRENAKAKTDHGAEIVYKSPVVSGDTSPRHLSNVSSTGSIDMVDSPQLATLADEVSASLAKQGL

IC50: 102 µM
SMILES: CC(/C=C/C=C(\C)C(=O)O[C@@H]1O[C@H](CO[C@@H]2O[C@H](CO)[C@@H](O)[C@H](O)[C@H]2O)[C@@H](O)[C@H](O)[C@H]1O)=C\C=C\C=C(C)\C=C\C=C(/C)C(=O)O[C@@H]1O[C@H](CO[C@@H]2O[C@H](CO)[C@@H](O)[C@H](O)[C@H]2O)[C@@H](O)[C@H](O)[C@H]1O [crocin]
